Results as given in patent US4721808A, “Process for purification of crude p-hydroxymethylbenzoic acid” (Amoco Corporation, priority 1987, dated 1988).

Test: Solubilities of pHMBA and Impurities in Water
Assay type: physicochemical
Experimental: Since solubilities of p-hydroxymethylbenzoic acid and impurities in solvents depend upon the temperature at which the reaction takes place, increased product production is obtained by increased temperature and pressure.
Solubilities of pHMBA and Impurities in Water
Solubility (g/100 ml H2 O)

Row | Solubility at 20° C. | Solubility at 100° C. | Structure (SMILES)
1 | < 0.005 g/100 ml H2 O | ~ 0.25 g/100 ml H2 O | O=Cc1ccc(C(=O)O)cc1 [4-CBA, 4-carboxybenzaldehyde]
2 | ~ 0.5 g/100 ml H2 O | ~ 10.0 g/100 ml H2 O | O=C(O)c1ccc(CO)cc1 [pHMBA, p-hydroxymethylbenzoic acid]
3 | 0.02 g/100 ml H2 O | 0.22 g/100 ml H2 O | Cc1ccc(C(=O)O)cc1 [p-Toluic Acid, p-toluic acid]

Row | Structure (SMILES) | Solubility at 20° C. | Solubility at 100° C.
4 | O=C(O)c1ccc(C(=O)O)cc1 [Terephthalic Acid, terephthalic acid] | < 0.005 g/100 ml H2 O | 0.03 g/100 ml H2 O
